In patent US10493046B2, “5-hydroxytryptamine 1B receptor-stimulating agent for use as a promoter of satellite cells self-renewal and/or differentiation” (INSTITUT PASTEUR, priority 2015, dated 2019):

Key:
Type in all cases: in vivo, mouse
vessels = experiment: Vessel number in tibialis anterior of treated mice (Flk1GFP/+ or CD31 immunostaining)
Experimental: (§1) Immunostaining was performed on cryosections fixed with 4% paraformaldehyde (PFA EMS#15710) in cold PBS, permeabilized with 0.5% Triton X-100 20 min at room temperature, washed, and blocked with 10% BSA for 30 min. Sections were incubated with primary antibodies overnight at 4° C. (see Table 1 below) and with Alexa-conjugated secondary antibodies 1/250 and Hoechst for 45 minutes. Sections were then analysed using an automated axioscan (Zeiss) or inverted Observer.Z1 Apotome (Zeiss). For apoptosis assessment, cells were collected in 2% serum, spun on polyD-lysine (Sigma-Aldrich#P6407), and immediately fixed with PFA 4%.
Throughout the study, focus was made on the tibialis anterior (TA). In skeletal muscle, SC are central for muscle repair. […] SC are localized close to capillaries and angiogenesis is known to be crucial for muscle repair SC survival with cellular interplays between vessel cells and SC. The number of vessels was therefore quantified. In control Flk1^GFP/+ mouse (placebo), the number of vessels was of 870±213.1 vessels per mm^2 and increased after 3 weeks of I.P treatment (1103±110.2 vessels per mm^2), and even more after 6 weeks (1384±175.3 vessels per mm^2, p=0.008) (FIG. 2e). Neovessels presented with normal histological appearance associating a basal lamina and a permeable lumen sometimes containing red blood cells. […] 841±137 CD31+ cells per mm^2 were counted in the placebo-treated mice vs. 2260±361 CD31+ cells per mm^2 in the fluoxetine-treated mice, p=0.008 (FIG. 2t-v), confirming the previous observation.
In order to investigate the effect of vortioxetine on vessels number, intra peritoneal (I.P) administration of 20 mg/kg of vortioxetine was performed for either 12 days, 3 or 6 weeks to C57Bl/6 mice (FIG. 10a). The number of CD31+ cells was counted by immunostaining. The number of vessels in the placebo is (863.5±115.6 vessels per mm^2) and increases after 12 days of I.P treatment (2274±926 vessels per mm^2, p=0.03), and even more after 3 weeks (2847±705 vessels per mm^2, p=0.02) (FIG. 10b). However, there was no statistically significant differences between 12 days and 3 weeks of treatment (p=0.49). Neovessels display a normal histological appearance associated with a basal lamina and a permeable lumen sometimes containing red blood cells. The daily administration of vortioxetine IP might cause unwanted peritoneal inflammation that could interfere with angiogenesis since inflammation and neovascularization are intertwined in some models. Vortioxetine was therefore administered per os (P.O) for 12 days: a similar increase in the number of vessels was observed (2451±595 vessels per mm^2 p=0.028, FIG. 10c). To further confirm those results, vortioxetine will be administered to Flk1^GFP/+ mice P.O and I.P for 12 days, and an ex vivo Matrigel angiogenesis assay and plasma from vortioxetine treated mice will be used on HUVEC (endothelial cells).

Tibialis anterior = experiment: Muscle regeneration after notexin injury of tibialis anterior
Experimental: Animals were anesthetized with ketamine (Imalgene1000 100 mg/Kg Merial) and Xylazine (Rompun2% 20 mg/Kg Bayer) prior to injury. Animals were hydrated and treated with analgesic (Buprenorphin Axience 0.3 mg/kg) twice a day for 4 d following injury. For the injury, mice were anesthetized as previously described and 10 μl of 12.5 μg/ml Notexin (Lotaxan) was injected in the Tibialis anterior. All protocols were reviewed by the Institut Pasteur, the competent authority, for compliance with the French and European regulations on Animal Welfare and with Public Health Service recommendations. This project has been reviewed and approved (#2013-0044) by the Institut Pasteur ethic committee (C2EA 89-CETEA).
(§2) Tibialis anterior (TA) was carefully dissected and snap frozen in liquid-nitrogen-cooled isopentane for a few minutes and stored at −80° C. prior to cryosectioning (10 μm sections). Sections were kept at room temperature overnight before staining. Sections were then rehydrated in PBS for 10 minutes and fixed in 10% formalin for 3 minutes. The sections were then routinely stained with haematoxylin and eosin (HE) using an automated stain machine or manually with red sirius.
as §1
For image analysis (fibrosis quantification), ImageJ 1.46r software was using between 10 different photos randomly taken per section and 3 sections minimum per experimental group. The pictures were converted in a binary image and the pixel values then collected. For fibre size, the sections were immunostained with rabbit anti Laminin (Sigma-Aldrich #L9393) diluted at 1/200, overnight at 4° C. Secondary Donkey ant Rabbit 488 (DL488 JacksonImmuno #711486152) were used at 1/200 45 minutes at room temperature. The fibre perimeter was done automatically by using Pixcavator® software.

Mdx mice = Mdx mice (Duchenne muscular dystrophy model), muscle histology
Experimental: as §2, §1
The fiber size was also overall bigger in Mdx treated-animals (4.241±0.9 pixels in treated vs. 3.192±0.3 in placebo p=0.051) (FIG. 8b). […] The number of vessels increased in the treated mice (1459±327 vessels per mm^2) when compared to the placebo (942.4±113 vessels […], p=0.008) (FIG. 8e). […] This observation is in line with the decreased infiltration of inflammatory cells observed in the muscle (9.6±3.7 Gr1+ cells observed per section in the placebo vs. 4±2.4 Gr1+ cells in the treated mice p=0.04) (FIG. 8i).

satellite cells = experiment: Satellite cell (SC) number in tibialis anterior of treated mice (histological count or FACS cytometry); settings: for Number of SC: Tg:Pax7nGFP mice
[1] = notexin injury after fluoxetine treatment
[2] = fluoxetine P.O. 6 weeks, Mdx mice

COc1ccc(NC(=O)c2ccc(-c3ccc(-c4noc(C)n4)cc3C)cc2)cc1N1CCN(C)CC1 [GR127935]
Number of vessels (vessels; GR127935 in osmotic pump together with fluoxetine P.O 6 weeks, Flk1GFP/+ mice): 1028±173 vessels per mm^2
Effect of the antagonist on the beneficial effects of fluoxetine after injury (Tibialis anterior; antagonist together with fluoxetine, SC, differentiating cells, fiber size, calcium deposits, fibrosis, Gr1 and F4/80 cells): suppressed the beneficial effects of fluoxetine treatment
Effect of GR127935 on the beneficial effects of vortioxetine after injury (Tibialis anterior; vortioxetine 12 days-treatment plus GR127935, SC, differentiating cells, fiber size, calcium deposits, fibrosis, Gr1 and F4/80 cells): repressed the beneficial effects of the vortioxetine 12 days-treatment
Beneficial effects of fluoxetine when co-treated with 5-HT1B inhibitor (Mdx mice; Mdx mice treated with fluoxetine and a 5-HT1B inhibitor): the beneficial effects were lost
Number of SC (satellite cells; GR127935 in osmotic pump together with fluoxetine P.O 6 weeks): 4674±1414 SC per TA

CNCCC(Oc1ccc(C(F)(F)F)cc1)c1ccccc1 (centres unmarked) [fluoxetine]
Number of vessels (vessels; fluoxetine 18 mg/kg I.P, 3 weeks, Flk1GFP/+ mouse): 1103±110.2 vessels per mm^2
Number of vessels (vessels; fluoxetine 18 mg/kg I.P, 6 weeks, Flk1GFP/+ mouse): 1384±175.3 vessels per mm^2
Number of vessels (vessels; fluoxetine P.O 6 weeks and PBS in osmotic pump, Flk1GFP/+ mice): 1949±576 vessels per mm^2
CD31+ cells on cryo-sectioned TA (vessels; fluoxetine P.O, 6 weeks, C57Bl/6 mice): 2260±361 CD31+ cells per mm^2
Number of vessels (vessels; fluoxetine P.O, 6 weeks, Flk1GFP/+ mouse): 1256±62.2 vessels per mm^2
Calcium deposits 14 days post-injury (Tibialis anterior; [1]): 3.2±3 per mm^2
Differentiating (Myogenin+) cells 4 days post-injury vs placebo (Tibialis anterior; [1]): more cells were already differentiating
Endomysial fibrosis 14 days post-injury (Tibialis anterior; [1]): 2.2±0.7 % of total muscle area
F4/80 inflammatory cells 14 days post-injury (Tibialis anterior; [1]): 4.7±2.7 cells per section
Gr1+ inflammatory cells 14 days post-injury (Tibialis anterior; [1]): 4.1±2.6 cells per section
Number of fibers 14 days post-injury vs placebo (Tibialis anterior; [1]): remained the same
Regenerating fiber size 14 days post-injury (Tibialis anterior; [1]): 129±12.6 μm^2
Number of SC 4 days post-injury (Tibialis anterior; notexin injury after fluoxetine treatment, Tg:Pax7nGFP mice): 459±283 per mm^2
Number of vessels 28 days post-injury vs placebo (Tibialis anterior; notexin injury after fluoxetine treatment, p=0.036): higher
Number of SC 28 days post-injury vs placebo (Tibialis anterior; notexin injury after fluoxetine treatment, p=0.076): higher
Number of SC per TA after 3 rounds of injury (Tibialis anterior; several rounds of injury after fluoxetine treatment): remained constant
Fiber size (Mdx mice; [2]): 4.241±0.9 pixels
Foci of necrotic fiber (necrotic area) (Mdx mice; [2]): 2890 ± 803 µm²
Gr1+ cells in the muscle (Mdx mice; [2]): 4±2.4 cells per section
Number of cycling satellite cells vs placebo (Mdx mice; [2]): decreased
Number of regenerating foci vs placebo (Mdx mice; [2]): decreased
Number of vessels (Mdx mice; [2]): 1459±327 vessels per mm^2
Number of SC by histological count (satellite cells; fluoxetine 18 mg/kg, tibialis anterior, TgPax7nGFP mouse): 16.3±5.4 SC per mm^2
Number of SC (satellite cells; fluoxetine P.O 6 weeks and PBS in osmotic pump): 7283±2325 SC per TA
